Source: patent publication US8927715B2, “Inhibitors of 11β-hydroxysteroid dehydrogenase type 1” (Vitae Pharmaceuticals, Inc., priority 2006, dated 2015)

Each molecule was assayed against human 11β-HSD1 (Homo sapiens, UniProt P28845) (assay: Inhibition of a microsomal preparation of 11β-HSD1, SPA (Biological Test Example 2)). Conditions: read-out: Biological Test Example 2 (IC50 class).
Assay type: biochemical
Design: expressed in transfected cells; host or cells: CHO cells (microsomes)
Experimental: All reactions are carried out at room temperature in 96 well clear flexible PET Microbeta plates (PerkinElmer). […] After a 10 minute pre-incubation, 50 μL of enzyme solution containing microsomes isolated from CHO cells overexpressing human 11β-HSD1 (10-20 μg/ml of total protein) is added, and the plates are then incubated for 90 minutes at room temperature. The reaction is stopped by adding 50 μl of the SPA beads suspension containing […] 18β-glycyrrhetinic acid, 5 mg/ml protein A coated YSi SPA beads (GE Healthcare) and 3.3 μg/ml of anti-cortisol antibody (East Coast Biologics) in Superblock buffer (Bio-Rad). The plates are then shaken for 120 minutes at room temperature, and the SPA signal corresponding to [^3H]cortisol is measured on a Microbeta plate reader.

Chain of human 11β-HSD1 (P28845 whole entry): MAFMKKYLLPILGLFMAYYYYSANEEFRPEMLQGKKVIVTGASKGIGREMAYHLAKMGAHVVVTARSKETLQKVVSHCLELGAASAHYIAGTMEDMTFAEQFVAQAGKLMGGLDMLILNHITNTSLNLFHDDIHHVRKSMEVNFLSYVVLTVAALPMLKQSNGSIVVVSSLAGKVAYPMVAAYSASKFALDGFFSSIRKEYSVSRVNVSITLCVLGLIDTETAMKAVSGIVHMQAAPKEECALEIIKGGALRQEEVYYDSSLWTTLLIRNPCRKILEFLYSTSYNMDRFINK

`Cc1ccc2c(c1)C1(CCN(C(=O)NC3C4CC5CC(C4)CC3C5)CC1)CC2CC(=O)O` (racemic) [Example 57, (±)-2-(1′-((2-Adamantyl)carbamoyl)-6-methyl-2,3-dihydrospiro[indene-1,4′-piperidine]-3-yl)acetic acid] and `CC(C)(C)OC(=O)N1CC2(CCN(C(=O)OC3C4CC5CC3CC(C(N)=O)(C5)C4)CC2)c2ccccc21` (stereo not drawn) [Example 85, 1-Tert-butyl 1′-(trans-1-carbamoyl-4-adamantyl)spiro[indoline-3,4′-piperidine]-1,1′-dicarboxylate] cannot be ordered by IC50: under 50 nM for the first, under 50 nM for the second.

`CCOC(=O)CC1CC2(CCN(C(=O)NC3C4CC5CC(C4)CC3C5)CC2)c2ccc(Cl)cc21` (racemic) [Example 55, (±)-Ethyl 2-(1′-((2-adamantyl)carbamoyl)-5-chloro-2,3-dihydrospiro[indene-1,4′-piperidine]-3-yl)acetate] and “4-(1′-(2-Adamantyloxycarbonyl)-1H-spiro[isoquinoline-4,4′-piperidine]-2(3H)-yl)-4-oxobutanoic acid [Example 94]” cannot be ordered by IC50: under 50 nM for the first, under 50 nM for the second.

`CN1C(=S)c2ccccc2C12CCN(C(=O)NC1C3CC4CC(C3)CC1C4)CC2` (centres unmarked) [103, Step 1 Product] and “3-(1′-(2-Adamantyloxycarbonyl)-1H-spiro[isoquinoline-4,4′-piperidine]-2(3H)-ylsulfonyl)propanoic acid [Example 109]” cannot be ordered by IC50: under 50 nM for the first, under 50 nM for the second.

`CCOC(=O)N1Cc2ccccc2C2(CCN(C(=O)NC3C4CC5CC(C4)CC3C5)CC2)C1` (centres unmarked) [Example 36, Ethyl 1′-((2-adamantyl)carbamoyl)-1H-spiro[isoquinoline-4,4′-piperidine]-2(3H)-carboxylate] and `N#Cc1ccc(N2Cc3ccccc3C3(CCN(C(=O)OC4C5CC6CC(C5)CC4C6)CC3)C2)nc1` (centres unmarked) [Example 41, 2-Adamantyl 2-(5-cyanopyridin-2-yl)-2,3-dihydro-1H-spiro[isoquinoline-4,4′-piperidine]-1′-carboxylate] cannot be ordered by IC50: under 50 nM for the first, under 50 nM for the second.

`Cc1ccc2c(c1)C1(CCN(C(=O)OC3C4CC5CC(C4)CC3C5)CC1)CC2CC(=O)O` (racemic) [Example 64, (±)-2-(6-Methyl-1′-((2-adamantyloxy)carbonyl)-2,3-dihydrospiro[indene-1,4′-piperidine]-3-yl)acetic acid] and “3-(1′-((2-Adamantyl)carbamoyl)-1H-spiro[isoquinoline-4,4′-piperidine]-2(3H)-yl)propanoic acid [Example 33]” cannot be ordered by IC50: under 50 nM for the first, under 50 nM for the second.

`CN(C)CCCNC(=O)CC1CC2(CCN(C(=O)NC3C4CC5CC(C4)CC3C5)CC2)c2c(Br)cccc21` (centres unmarked) [Example 117, 7-Bromo-N-(2-adamantyl)-3-(2-(3-(dimethylamino)propylamino)-2-oxoethyl)-2,3-dihydrospiro[indene-1,4′-piperidine]-1′-carboxamide] and `CCOC(=O)CC1CC2(CCN(C(=O)NC3C4CC5CC(C4)CC3C5)CC2)c2c(Br)cccc21` (racemic) [Example 42, (±)-Ethyl 2-(7-bromo-1′-((2-adamantyl)carbamoyl)-2,3-dihydrospiro[indene-1,4′-piperidine]-3-yl)acetate] cannot be ordered by IC50: under 50 nM for the first, under 50 nM for the second.

First: CC(C)(CC(=O)O)CC(=O)N1CC2(CCN(C(=O)NC3C4CC5CC(C4)CC3C5)CC2)c2ccccc21 (centres unmarked) [Example 96, 5-(1′-(2-Adamantylcarbamoyl)spiro[indoline-3,4′-piperidine]-1-yl)-3,3-dim ethyl-5-oxopentanoic acid]
Second: COc1cc(CNC(=O)C23CC4CC(C2)C(OC(=O)N2CCC5(CC2)CC(CC(=O)O)c2ccccc25)C(C4)C3)cc(OC)c1 (centres unmarked) [Example 72, 2-(1′-((1-(3,5-Dimethoxybenzylcarbamoyl)-4-adamantyloxy)carbonyl)-2,3-dihydrospiro[indene-1,4′-piperidine]-3-yl)acetic acid]
The IC50 of the first is lower: under 50 nM for the first, 50 to 1000 nM for the second. The first is the more potent here.

`O=C(O)CCCC(=O)N1CC2(CCN(C(=O)NC3C4CC5CC(C4)CC3C5)CC2)c2ccccc21` (centres unmarked) [Example 93, 5-(1′-(2-Adamantylcarbamoyl)spiro[indoline-3,4′-piperidine]-1-yl)-5-oxopentanoic acid] and `CN1C(C)(C)c2cccc(Cl)c2C12CCN(C(=O)NC1C3CC4CC(C3)CC1C4)CC2` (centres unmarked) [Example 105, 7-Chloro-N-(2-adamantyl)-2,3,3-trimethylspiro[isoindoline-1,4′-piperidine]-1′-carboxamide] cannot be ordered by IC50: under 50 nM for the first, under 50 nM for the second.

`O=C(O)/C=C/C(=O)N1Cc2ccccc2C2(CCN(C(=O)NC3C4CC5CC(C4)CC3C5)CC2)C1` (centres unmarked) [Example 91, (E)-4-(1′-(2-Adamantylcarbamoyl)-1H-spiro[isoquinoline-4,4′-piperidine]-2(3H)-yl)-4-oxobut-2-enoic acid] and `CCOC(=O)CC1CC2(CCN(C(=O)NC3C4CC5CC(C4)CC3C5)CC2)c2c(Cl)cccc21` (racemic) [Example 51, (±)-Ethyl 2-(1′-((2-adamantyl)carbamoyl)-7-chloro-2,3-dihydrospiro[indene-1,4′-piperidine]-3-yl)acetate] cannot be ordered by IC50: under 50 nM for the first, under 50 nM for the second.

First: CN1Cc2ccccc2C12CCN(C(=O)NC1C3CC4CC(C3)CC1C4)CC2 (centres unmarked) [Example 86, N-(2-Adamantyl)-2-methylspiro[isoindoline-1,4′-piperidine]-1′-carboxamide]
Second: O=C(O)CC1CCC2(CC1)CCN(C(=O)OC1C3CC4CC(C3)CC1C4)CC2 (centres unmarked) [Example 80, 2-(3-((2-Adamantyl)oxycarbonyl)-3-azaspiro[5.5]undecan-9-yl)acetic acid]
The IC50 of the first is lower: under 50 nM for the first, 50 to 1000 nM for the second.

`CN1Cc2cccc(Cl)c2C12CCN(C(=O)NC1C3CC4CC(C3)CC1C4)CC2` (centres unmarked) [Example 88, 7-Chloro-N-(2-adamantyl)-2-methylspiro[isoindoline-1,4′-piperidine]-1′-carboxamide] and `CN(C)CCCCNC(=O)CC1CC2(CCN(C(=O)NC3C4CC5CC(C4)CC3C5)CC2)c2c(Br)cccc21` (centres unmarked) [Example 118, 7-Bromo-N-(2-adamantyl)-3-(2-(4-(dimethylamino)butylamino)-2-oxoethyl)-2,3-dihydrospiro[indene-1,4-r-piperidine]-1′-carboxamide] cannot be ordered by IC50: under 50 nM for the first, under 50 nM for the second.

`CC(C)(C(=O)O)C1CC2(CCN(C(=O)NC3C4CC5CC(C4)CC3C5)CC2)c2c(Br)cccc21` (racemic) [Example 68, (±)-2-(7-Bromo-1′-((2-adamantyl)carbamoyl)-2,3-dihydrospiro[indene-1,4′-piperidine]-3-yl-2-methylpropanoic acid] and `CCOC(=O)CC1CC2(CCN(C(=O)NC3C4CC5CC(C4)CC3C5)CC2)c2c(C)cccc21` (racemic) [Example 47, (±)-Ethyl 2-(1′-((2-adamantyl)carbamoyl)-7-methyl-2,3-dihydrospiro[indene-1,4′-piperidine]-3-yl)acetate] cannot be ordered by IC50: under 50 nM for the first, under 50 nM for the second.

First: CC(C)(CO)C1CC2(CCN(C(=O)NC3C4CC5CC(C4)CC3C5)CC2)c2c(Br)cccc21 (racemic) [Example 123, (±)-7-Bromo-N-(2-adamantyl)-3-(1-hydroxy-2-methylpropan-2-yl)-2,3-dihydrospiro[indene-1,4′-piperidine]-1′-carboxamide]
Second: CC(C)(CC(=O)O)CC(=O)N1Cc2ccccc2C2(CCN(C(=O)NC3C4CC5CC(C4)CC3C5)CC2)C1 (centres unmarked) [Example 98, 5-(1′-(2-Adamantylcarbamoyl)-1H-spiro[isoquinoline-4,4′-piperidine]-2(3H)-yl)-3,3-dimethyl-5-oxopentanoic acid]
The IC50 of the first is lower: under 50 nM for the first, 50 to 1000 nM for the second. The first is the more potent here.
